Test results: patent US4472386A, “5-Fluoro-(β-uridine or 2'-deoxy-β-uridine) derivatives, a process for producing the same and a carcinostatic agent containing the same” (Toyama Chemical Co., Ltd., priority 1978, dated 1984)
Where two headings read alike, the source gives them in different places.

Tests used:
[1] = tested on: Ehrlich ascites carcinoma; experiment: Carcinostatic test, oral, ED values (Table 5); format: in vivo, ddY mice; details: Mus musculus, 336 h
Protocol: Ehrlich ascites carcinoma was subcutaneously inoculated into the right inguinal region of ddY mice (5 weeks old, male, 8 mice per group) with 8×10^6 cells per mouse. Twenty four hours after the inoculation,5, 10, 20 or 40 mg/kg of a test drug suspended or dissolved in polyethylene glycol was administered orally to the test group successively once daily for 10 days, while the same quantity as above of 10% polyethylene glycol was administered orally to the control group. Fourteen days after the inoculation, the tumor was excised and weighed, from which the average tumor weight ratio between the test group and the control group (T/C) was calculated. ED value was determined by the least square method.

[2] = Acute toxicity test (b), oral LD50 (Table 4); details: mouse, in vivo
Protocol: (b) The test compound was suspended in 0.25% CMC solution and administered orally to SLC-ddY mice (5 weeks old, male, 6 mice per group). The number of dead mice was counted over the subsequent 3 weeks. LD50 value was calculated according to the method of Van der Waerden.

[3] = tested on: Ehrlich ascites carcinoma; experiment: Inhibition of Ehrlich solid tumor in mice, oral administration starting six days after inoculation (Table 2); format: in vivo, ddY mice; details: for T/C (average tumor weight ratio between test group and control group): day 21
Protocol: (§1) 1. Experiment on the inhibition of Ehrlich solid tumor
Ehrlich ascites carcinoma was subcutaneously inoculated into the inguinal region of ddY mice (5 weeks old, male, 8 mice per group) with 3×10^6 cells per mouse. Six days after the inoculation, a test drug dissolved or suspended in 0.5% CMC solution was administered orally to the test group successively once daily for 10 days, while the same quantity as above of 0.5% CMC solution was orally administered to the control group. Twenty one days after the inoculation, the tumor was excised and weighed, from which the average tumor weight ratio between the test group and the control group (T/C) was determined.

[4] = tested on: Sarcoma-180 ascites tumor; experiment: Inhibition of Sarcoma-180 ascites tumor in mice, intravenous administration (Table 3); format: in vivo, ddY mice; details: for T/C (average tumor weight ratio between test group and control group): Sarcoma-180, day 10
Protocol: 2. Experiment on the inhibition of Sarcoma-180 ascites tumor
Sarcoma-180 ascites tumor was subcutaneously inoculated into the right inguinal region of ddY mice (5 weeks old, male, 8 mice per group) with 3×10^6 cells per mouse. Twenty four hours after the inoculation,a test drug dissolved in 10% polyethylene glycol was administered intravenously to the test group successively once daily for 7 days, while the same quantity as above of 10% polyethylene glycol was intravenously administered to the control group. Ten days after the inoculation, the tumor was excised and weighed, from which the average tumor weight ratio between the test group and the control group (T/C) was determined.

[5] = tested on: Ehrlich ascites carcinoma; experiment: Inhibition of Ehrlich solid tumor in mice, intraperitoneal administration (Table 1); format: in vivo, ddY mice; design: response vs control in vivo: dose or concentration left out as unconfirmed; details: for response vs control in vivo: day 14
Protocol: as §1
Ehrlich ascites carcinoma was subcutaneously inoculated into the right inguinal region of ddY mice (5 weeks old, male, 8 mice per group) with 3×10^6 cells per mouse.
24 Hours after the inoculation, a test drug suspended or dissolved in 5% HCO 60 (a product manufactured by Nikkol) was administered intraperitoneally successively once daily for 7 days. To the control group, the same quantity as above of 5% HCO 60 was intraperitoneally administered in the same manner. Fourteen days after the inoculation, the tumor was excised and weighed, from which the average tumor weight ratio between the test group and the control group (T/C) was determined.

[6] = tested on: SLC-ddY mice; details: mouse, in vivo
From the text: (a) The test compound was suspended in 0.25% CMC solution and administered intraperitoneally to SLC-ddY mice (5 weeks old, male, 6 mice per group). The number of dead mice was counted over the subsequent three weeks.

[7] = oral, 3 weeks, Van der Waerden method
[8] = 5 mg/kg i.v. once daily for 7 days
[9] = oral once daily for 10 days, least square method, read-out: ED30
[10] = oral once daily for 10 days, least square method, read-out: ED40
[11] = 60 mg/kg orally once daily for 10 days
[12] = 60 mg/kg orally once daily for 10 days from day 6, Ehrlich
[13] = 10 mg/kg i.v. once daily for 7 days
[14] = 40 mg/kg i.p. once daily for 7 days
[15] = Mus musculus, ip, 336 h, Ehrlich, read-out: T/C (average tumor weight ratio between test group and control group)

Row | SMILES | Body weight change [5, 14] | response vs control in vivo [5, 15] | further results
1 | O=c1[nH]cc(F)c(=O)[nH]1 [5-Fu, 5-fluorouracil, reference compound] |  |  | ED30 ([1]; po): 15 mg/kg; ED40 ([1]; po): 25 mg/kg; LD50 at 504 h [2, 7]: 259 mg/kg; Body weight change ([3]; 30 mg/kg orally once daily for 10 days): -3.8 g; T/C (average tumor weight ratio between test group and control group) ([3]; 30 mg/kg orally once daily for 10 days from day 6, Ehrlich): 39.7%; Body weight change [4, 8]: +4.0 g; No. of surviving mice/No. of total mice used [4, 8]: 8/8; T/C (average tumor weight ratio between test group and control group) [4, 8]: 59.7%; Body weight change ([5]; 20 mg/kg i.p. once daily for 7 days): +4.1 g; response vs control in vivo at 20 mg/kg ([5]; Mus musculus, Ehrlich, ip, 336 h, read-out: T/C (average tumor weight ratio between test group and control group)): 49.9%
2 | O=C(c1ccc(F)cc1)n1c(=O)c(F)cn([C@H]2C[C@H](O)[C@@H](CO)O2)c1=O [compound 2] | +6.8 g | 23.2% | ED30 [1, 9]: 11 mg/kg; ED40 [1, 10]: 20 mg/kg; LD50 at 504 h ([2]; po): 2070 mg/kg; Body weight change [3, 11]: -0.4 g; T/C (average tumor weight ratio between test group and control group) [3, 12]: 36.8%; Body weight change [4, 13]: +4.1 g; No. of surviving mice/No. of total mice used [4, 13]: 8/8; T/C (average tumor weight ratio between test group and control group) [4, 13]: 46.2%; Number of dead mice [6]: no dead mice
3 | O=C(CCl)Nc1cccc(C(=O)n2c(=O)c(F)cn([C@H]3C[C@H](O)[C@@H](CO)O3)c2=O)c1 [compound 4] | +4.4 g | 25.2% | 
4 | O=C(CCl)Nc1ccc(C(=O)n2c(=O)c(F)cn([C@H]3C[C@H](O)[C@@H](CO)O3)c2=O)cc1 [compound 5] | +4.8 g | 27.5% | Body weight change [3, 11]: -4.1 g; T/C (average tumor weight ratio between test group and control group) [3, 12]: 34.0%
5 | Cc1ccccc1C(=O)n1c(=O)c(F)cn([C@H]2C[C@H](O)[C@@H](CO)O2)c1=O [compound 6] | +7.3 g | 32.3% | 
6 | O=C(c1ccccc1Cl)n1c(=O)c(F)cn([C@H]2C[C@H](O)[C@@H](CO)O2)c1=O [compound 7] | +6.0 g | 33.1% | 
7 | O=C(c1ccccc1I)n1c(=O)c(F)cn([C@H]2C[C@H](O)[C@@H](CO)O2)c1=O [compound 8] | +7.6 g | 33.5% | 
8 | O=C(c1cccc2ccccc12)n1c(=O)c(F)cn([C@H]2C[C@H](O)[C@@H](CO)O2)c1=O [compound 9] | +6.7 g | 33.5% | 
9 | COc1cc(N)c(Cl)cc1C(=O)n1c(=O)c(F)cn([C@H]2C[C@H](O)[C@@H](CO)O2)c1=O [compound 10] | +7.3 g | 34.2% | 
10 | O=C(c1cccc(Cl)c1)n1c(=O)c(F)cn([C@H]2C[C@H](O)[C@@H](CO)O2)c1=O [compound 11] | +7.6 g | 34.3% | Number of dead mice [6]: no dead mice
11 | COC(=O)c1ccc(C(=O)n2c(=O)c(F)cn([C@H]3C[C@H](O)[C@@H](CO)O3)c2=O)cc1 [compound 12] | +6.2 g | 36.9% | 
12 | N#Cc1ccc(C(=O)n2c(=O)c(F)cn([C@H]3C[C@H](O)[C@@H](CO)O3)c2=O)cc1 [compound 13] | +7.2 g | 36.9% | Number of dead mice [6]: no dead mice
13 | O=Cc1ccc(C(=O)n2c(=O)c(F)cn([C@H]3C[C@H](O)[C@@H](CO)O3)c2=O)cc1 [compound 14] | +7.1 g | 38.1% | 
14 | O=C(c1ccco1)n1c(=O)c(F)cn([C@H]2C[C@H](O)[C@@H](CO)O2)c1=O [compound 15] | +7.9 g | 39.1% | 
15 | Cc1ccsc1C(=O)n1c(=O)c(F)cn([C@H]2C[C@H](O)[C@@H](CO)O2)c1=O [compound 16] | +6.4 g | 40.7% | 
16 | O=C(c1cc(O)cc(O)c1)n1c(=O)c(F)cn([C@H]2C[C@H](O)[C@@H](CO)O2)c1=O [compound 17] | +7.9 g | 41% | 
17 | COc1cccc(OC)c1C(=O)n1c(=O)c(F)cn([C@H]2C[C@H](O)[C@@H](CO)O2)c1=O [compound 18] | +7.8 g | 41.5% | Number of dead mice [6]: no dead mice
18 | O=C(c1ccc([N+](=O)[O-])cc1)n1c(=O)c(F)cn([C@H]2C[C@H](O)[C@@H](CO)O2)c1=O [compound 19] | +5.9 g | 41.5% | 
19 | O=C(c1ccccc1F)n1c(=O)c(F)cn([C@H]2C[C@H](O)[C@@H](CO)O2)c1=O [compound 20] | +7.4 g | 42.8% | 
20 | CN(C)c1ccc(C(=O)n2c(=O)c(F)cn([C@H]3C[C@H](O)[C@@H](CO)O3)c2=O)cc1 [compound 21] | +4.7 g | 32.4% | LD50 at 504 h [2, 7]: ≥ 2540 mg/kg
21 | O=C(Nc1ccc(C(=O)n2c(=O)c(F)cn([C@H]3C[C@H](O)[C@@H](CO)O3)c2=O)cc1)C(Cl)Cl [compound 22] | +6.5 g | 41.6% | 
22 | O=C(c1cc(Br)cs1)n1c(=O)c(F)cn([C@H]2C[C@H](O)[C@@H](CO)O2)c1=O [compound 23] | +5.3 g | 38.8% | 
23 | O=C(c1ccc(Br)o1)n1c(=O)c(F)cn([C@H]2C[C@H](O)[C@@H](CO)O2)c1=O [compound 24] | +4.7 g | 42.5% | 
24 | O=C(c1cccc(C(F)(F)F)c1)n1c(=O)c(F)cn([C@H]2C[C@H](O)[C@@H](CO)O2)c1=O [compound 25] | +5.3 g | 43% | 
25 | O=C(CBr)Nc1ccc(C(=O)n2c(=O)c(F)cn([C@H]3C[C@H](O)[C@@H](CO)O3)c2=O)cc1 [compound 26] | +2.3 g | 35.3% | 
26 | O=C(c1ccc2c(c1)OCO2)n1c(=O)c(F)cn([C@H]2C[C@H](O)[C@@H](CO)O2)c1=O [compound 27] | +6.4 g | 27.1% | ED30 [1, 9]: 6.4 mg/kg; ED40 [1, 10]: 12 mg/kg; LD50 at 504 h ([2]; po): ≥ 2290 mg/kg; Body weight change [3, 11]: -0.5 g; T/C (average tumor weight ratio between test group and control group) [3, 12]: 30%; Body weight change [4, 13]: +4.0 g; No. of surviving mice/No. of total mice used [4, 13]: 8/8; T/C (average tumor weight ratio between test group and control group) [4, 13]: 45.3%; Number of dead mice [6]: no dead mice
27 | O=C(c1ccc(F)cc1F)n1c(=O)c(F)cn([C@H]2C[C@H](O)[C@@H](CO)O2)c1=O [compound 28] | +5.9 g | 21.7% | 
28 | O=C(c1c(F)cccc1F)n1c(=O)c(F)cn([C@H]2C[C@H](O)[C@@H](CO)O2)c1=O [compound 29] | +7.9 g | 41.3% | 
29 | CC(=O)OC[C@H]1O[C@@H](n2cc(F)c(=O)n(C(=O)c3ccc4c(c3)OCO4)c2=O)C[C@@H]1OC(C)=O [compound 30] | +6.1 g | 30.1% | 
